Key:
[1] = test system: human peripheral blood T cells; test: ELISA of cytokines in supernatants of anti-CD3/CD28-stimulated human peripheral blood T cells; type: cell-based; settings: for inhibition of IL-17A: 1 μM
Excerpt: Primary human T cells were freshly isolated and negatively selected from the PBLs of clinical samples using a cocktail of biotin-conjugated anti-CD19, anti-CD14, and anti-CD11b antibodies (BioLegend) on a magnetic cell separation column (Miltenyi Biotec, Bergisch Gladbach, Germany) ([26]). In addition, primary murine T cells were negatively selected from the spleens of mice using magnetically coupled antibodies against CD11b, B220, CD49b, CD235, and TER-119 (Miltenyi Biotec) ([18]).
We further studied whether IL-17A production is abolished by verteporfin in human and murine T cells. We first tested the inhibitory effect of verteporfin in murine T cells stimulated with T-cell receptor (TCR) signaling (anti-CD3 plus anti-CD28 antibodies). […] This reduction is likely due to the inhibition of NF-κB activation ([18]) by the verteporfin treatment. This notion is supported by our published results that TCR-induced TNF-α and IFN-γ levels in T cells are inhibited by IKK-β conditional knockout ([18]). Next, we studied whether verteporfin attenuates IL-17A production using human peripheral blood T cells with stimulation. The levels of T-cell–secreted IL-17A in unstimulated T cells from patients with SLE and RA were enhanced compared with those from healthy controls (Fig. 5B). […] GLK overexpression in T cells selectively induces IL-17A production in Lck-GLK Tg mice ([18]). […] The inhibition of the production of other cytokines by the high-dose but not low-dose verteporfin treatment may be due to a requirement of higher concentration of verteporfin for an efficient inhibition of NF-κB activation.
Figure 5 Verteporfin (C1) blocks IL-17 production of human T cells. A) ELISA of various cytokines in supernatants of murine primary T cells stimulated with anti-CD3 or CD28 and cotreated with C1 (5 or 10 μM) for 3 d. Means ± SD are shown; n = 3/group. B) ELISA of various cytokines in supernatants of human T cells. T cells were stimulated with anti-CD3 or CD28 and cotreated with C1 (1 or 5 μM) for 3 d. HC, healthy control; N.S., not significant. Means ± SD are shown. *P < 0.05, **P < 0.01, ***P < 0.001 (2-tailed Student’s t test).
Supplementary Figure 6. Inhibition of IL-17A overproduction by verteporfin in inflammatory T cells from SLE or RA patients. (A) ELISA of various cytokines in supernatants of T cells from RA patients. T cells were stimulated with anti-CD3/CD28 and co-treated with verteporfin (C1) (1 or 5 μM) for 3 days. Means ± SD are shown. (B) The inhibition (%) of IL-17A by the 1 μM verteporfin (C1) treatment in SLE or RA patients was compared to that of healthy controls (HC). Means ± SEM of are shown. HC, healthy controls; SLE, systemic lupus erythematosus; RA, rheumatoid arthritis.

[2] = test system: murine primary T cells; test: Cell death of murine primary T cells (Fixable Viability Stain 780, flow cytometry); type: cell-based; settings: 1 or 5 μM for 3 d, anti-CD3/CD28 stimulated
Method: Supplementary Figure 4. […] Murine primary T cells were stimulated with anti-CD3/CD28 and co-treated with verteporfin (C1) (1 or 5 μM) for 3 days. Dead T cells were labeled with Fixable Viability Stain 780 (FVS 780; BD Biosciences) and then determined by flow cytometry. Data shown are representatives of four independent experiments.

[3] = test system: AhR–phosphorylated ROR-γt (Ser-489) complex; test: In situ proximity ligation assay in peripheral blood T cells from patients with SLE or RA; type: cell-based, human; settings: 5 μM for 30 min; T cells from patients with SLE and RA
Method: (§1) Proximity ligation assays (PLAs) were performed using the Duolink In Situ Red Starter Kit (MilliporeSigma) according to the manufacturer’s instructions ([24]). Briefly, cells were incubated with rabbit or mouse primary antibodies for the AhR–plus–ROR-γt pair, followed by species-specific secondary antibodies that are conjugated with oligonucleotides (PLA probes). After ligation and amplification reactions for 100 min, the PLA signals from each pair of PLA probes in close proximity (<40 nm) were visualized as individual red dots by a confocal microscope (TCS SP5II; Leica Microsystems, Buffalo Grove, IL, USA). Red dots represent direct interaction signals.
(§2) After verification of the induction of GLK–AhR–ROR-γt–IL-17A signaling in human SLE T cells, we next studied whether the GLK–AhR–ROR-γt signaling is a therapeutic target for autoimmune diseases. Because there are no known commercial GLK inhibitors, we performed high-throughput screening of 101,200 compounds to identify GLK inhibitors using both cell-based luciferase reporter assays and in vitro kinase assays. […] Nevertheless, the IC50 of verteporfin for MAP4K3-GLK was the lowest one. […]
(§3) Figure 3 Verteporfin (C1) blocks the AhR–ROR-γt complex in human autoimmune T cells. […] D) Quantification of the PLA signals shown in panel C. *P < 0.05, ***P < 0.001 (2-tailed Student’s t test).

[4] = test system: AhR–ROR-γt complex; test: as above; type: cell-based, human; settings: 5 μM for 30 min; T cells from patients with SLE and RA
Method: as §1, §2, §3

[5] = target: T1, HPK1 (MAP4K1) (Homo sapiens, UniProt Q92918); test: In vitro kinase assay, myelin basic protein as substrate (ADP-Glo); type: biochemical; settings: recombinant kinase domain
T1 construct: Recombinant proteins of kinase domains of various MAP4Ks were used; purchased Promega
T1 sequence (Q92918 17-274 limits assumed): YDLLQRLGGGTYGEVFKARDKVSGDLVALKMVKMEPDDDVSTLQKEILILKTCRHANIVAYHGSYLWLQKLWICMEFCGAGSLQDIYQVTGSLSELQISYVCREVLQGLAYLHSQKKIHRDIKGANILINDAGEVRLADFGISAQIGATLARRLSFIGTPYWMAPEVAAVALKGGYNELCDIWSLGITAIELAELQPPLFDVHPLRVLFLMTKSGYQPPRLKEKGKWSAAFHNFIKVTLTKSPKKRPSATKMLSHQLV

Substance: verteporfin
- inhibition of IL-17A ([1]; T cells of healthy controls): ~48%
- inhibition of IL-17A ([1]; T cells of patients with SLE or RA): ~75%
- IL-17A production ([1]; T cells from patients with SLE and RA and healthy controls, 1 or 5 μM for 3 d): significantly reduced
- production of IL-17A, IL-6, IL-10, TNF-α, and IFN-γ ([1]; high-dose 5 μM, T cells of healthy controls and patients with SLE): significantly inhibited
- production of IL-6, IL-10, TNF-α, and IFN-γ ([1]; low-dose 1 μM, T cells from patients with SLE or RA): modestly inhibited
- cell death of murine primary T cells [2]: did not enhance cell death
- cell death of murine primary T cells ([2]; listed as Verteporfin): does not induce cell death
- AhR–phosphorylated ROR-γt complex (PLA signals) [3]: significantly inhibited
- AhR–ROR-γt complex (PLA signals) [4]: significantly inhibited
- IC50 [5]: 7.91 nM

From PMC6766655, “AhR–ROR-γt complex is a therapeutic target for MAP4K3/GLK^highIL-17A^high subpopulation of systemic lupus erythematosus” (The FASEB Journal, 2019)
